Experiments:
[1] = target: T1, WRN [UniPro: Q14191 (WRN_HUMAN), N500-C946] (Homo sapiens (Human), UniProt Q14191); test: WRN ATPase assay (ADP-Glo); assay type: biochemical; settings: WRN enzymatic activity assay
Procedure: WRN ATPase assay was initiated to evaluate potential inhibitory effect of compounds for ATP hydrolysis activity of WRN protein. WRN [UniPro: Q14191 (WRN_HUMAN), N500-C946] was expressed and purified in insect system and stored at −80° C. in aliquots. […] ADP quantity produced from ATP hydrolysis by WRN catalytic reaction was measured using a commercially available ADP-Glo Assay (ADP-Glo™ Kinase Assay from Promega, 10000 assays, #V9102). […] Compounds dissolved in DMSO (Sigma, D8418) were plated into a 96-well intermediate plate (BioFil, VWP-032-096) for 3-fold serial titration for 10 points using DMSO, and well-to-well transfer the titrated compounds into another 96-well intermediate plate including assay buffer in advance. Shake the 96-well intermediate plate at 600 rpm for 10 min to fully mix. Specifically, a 4× working mixture of WRN was diluted to a concentration of 8 nM in assay buffer. […] After centrifuging at 1000 rpm and shaking at 500 rpm, the assay plate was pre-incubated for 30 min. Then, 5 μL 2×FORKF DNA and ATP working mixture was dispensed into assay plate. Plate was sealed, centrifuged and incubated for an additional 40 min. at 37° C. The reaction was stopped with the addition of 10 μL of the first ADP-Glo reagent and incubated for 40 min. to remove the excess amount of ATP. Afterwards, 20 μL of ATP detection reagent was added and incubated for 30 min. before reading. Luminescence output was recorded using BMG CLARIO star plus reader. Each concentration of compound was tested in duplicates in the assay plate. Average luminescence signal of high control (Wells with 1% DMSO) was calculated as High Control (HC). Average luminescence signal of low control (Wells with no WRN protein) was calculated as Low control (LC).
IC50 values were determined by fitting the data to the standard 4 parameters with Hill Slope using GraphPad Prism software.

[2] = target: T1, WRN [UniPro: Q14191 (WRN_HUMAN), N500-C946]; test: WRN unwinding assay (FORKF DNA, fluorescence); assay type: biochemical; settings: Table 14

T1 sequence (Q14191 500-946): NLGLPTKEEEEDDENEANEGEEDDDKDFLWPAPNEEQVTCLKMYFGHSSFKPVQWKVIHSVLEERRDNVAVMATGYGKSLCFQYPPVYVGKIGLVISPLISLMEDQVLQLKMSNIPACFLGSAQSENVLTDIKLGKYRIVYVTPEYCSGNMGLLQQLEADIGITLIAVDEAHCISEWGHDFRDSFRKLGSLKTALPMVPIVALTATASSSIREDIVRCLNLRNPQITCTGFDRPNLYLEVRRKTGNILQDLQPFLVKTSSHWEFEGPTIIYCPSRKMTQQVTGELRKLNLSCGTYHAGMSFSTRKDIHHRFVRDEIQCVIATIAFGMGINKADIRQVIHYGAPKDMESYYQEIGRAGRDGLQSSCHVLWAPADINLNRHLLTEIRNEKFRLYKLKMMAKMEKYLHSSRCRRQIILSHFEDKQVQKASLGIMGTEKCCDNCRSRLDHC

IC50 [1] [nM] | IC50 [2] [nM] | SMILES
> 1000 | > 1000 | CCc1c(N2CCN(c3nnc(C(F)F)s3)CC2)c(=O)n2nc(C3=CCOCC3)nc2n1CC(=O)Nc1ccc(C(F)(F)F)cc1Cl [Example 8, N-(2-Chloro-4-(trifluoromethyl)phenyl)-2-(6-(4-(5-(difluoromethyl)-1,3,4-thiadiazol-2-yl)piperazin-1-yl)-2-(3,6-dihydro-2H-pyran-4-yl)-5-ethyl-7-oxo-[1,2,4]triazolo[1,5-a]pyrimidin-4(7H)-yl)acetamide]
100 to 1000 | > 1000 | CCc1c(N2CCN(C(=O)c3cc(-c4cc(OC)ncc4F)[nH]n3)CC2)c(=O)n2nc(C3=CCOCC3)nc2n1CC(=O)Nc1ccc(C(F)(F)F)cc1Cl [Example 9, N-(2-Chloro-4-(trifluoromethyl)phenyl)-2-(2-(3,6-dihydro-2H-pyran-4-yl)-5-ethyl-6-(4-(5-(5-fluoro-2-methoxypyridin-4-yl)-1H-pyrazole-3-carbonyl)piperazin-1-yl)-7-oxo-[1,2,4]triazolo[1,5-a]pyrimidin-4(7H)-yl)acetamide]
100 to 1000 | > 1000 | CCc1c(N2CCN(S(=O)(=O)CC)CC2)c(=O)n2nc(C3=CCOCC3)nc2n1CC(=O)Nc1ccc(C(F)(F)F)cc1Cl [Example 11, N-(2-Chloro-4-(trifluoromethyl)phenyl)-2-(2-(3,6-dihydro-2H-pyran-4-yl)-5-ethyl-6-(4-(ethylsulfonyl)piperazin-1-yl)-7-oxo-[1,2,4]triazolo[1,5-a]pyrimidin-4(7H)-yl)acetamide]
< 100 | < 100 | CCc1c(N2CCN(C(=O)NS(=O)(=O)c3cnn(C)c3)CC2)c(=O)n2nc(C3=CCOCC3)nc2n1CC(=O)Nc1ccc(C(F)(F)F)cc1Cl [Example 14, 4-(4-(2-((2-Chloro-4-(trifluoromethyl)phenyl)amino)-2-oxoethyl)-2-(3,6-dihydro-2H-pyran-4-yl)-5-ethyl-7-oxo-4,7-dihydro-[1,2,4]triazolo[1,5-a]pyrimidin-6-yl)-N-((1-methyl-1H-pyrazol-4-yl)sulfonyl)piperazine-1-carboxamide]
< 100 | < 100 | CCc1c(N2CCN(C(=O)c3ncnc4cn[nH]c34)CC2)c(=O)n2nc(C3=CCOCC3)nc2n1CC(=O)Nc1ccc(C(F)(F)F)cc1Cl [Example 17, 2-(6-(4-(1H-Pyrazolo[4,3-d]pyrimidine-7-carbonyl)piperazin-1-yl)-2-(3,6-dihydro-2H-pyran-4-yl)-5-ethyl-7-oxo-[1,2,4]triazolo[1,5-a]pyrimidin-4(7H)-yl)-N-(2-chloro-4-(trifluoromethyl)phenyl)acetamide]
100 to 1000 | 100 to 1000 | CCc1c(N2CCN(C(=O)Nc3[nH]ncc3C(F)(F)F)CC2)c(=O)n2nc(C3=CCOCC3)nc2n1CC(=O)Nc1ccc(C(F)(F)F)cc1Cl [Example 18, 4-(4-(2-((2-Chloro-4-(trifluoromethyl)phenyl)amino)-2-oxoethyl)-2-(3,6-dihydro-2H-pyran-4-yl)-5-ethyl-7-oxo-4,7-dihydro-[1,2,4]triazolo[1,5-a]pyrimidin-6-yl)-N-(4-(trifluoromethyl)-1H-pyrazol-5-yl)piperazine-1-carboxamide]
> 1000 | > 1000 | CCc1c(N2CCN(C(=O)c3[nH]ncc3C(F)(F)F)CC2)c(=O)n2nc(C3=CCOCC3)nc2n1CC(=O)Nc1ccc(C(F)(F)F)cc1Cl [Example 19, N-(2-Chloro-4-(trifluoromethyl)phenyl)-2-(2-(3,6-dihydro-2H-pyran-4-yl)-5-ethyl-7-oxo-6-(4-(4-(trifluoromethyl)-1H-pyrazole-5-carbonyl)piperazin-1-yl)-[1,2,4]triazolo[1,5-a]pyrimidin-4(7H)-yl)acetamide]
< 100 | < 100 | CCc1c(N2CCN(C(=O)c3n[nH]c(=O)[nH]c3=O)CC2)c(=O)n2nc(C3=CCOCC3)nc2n1CC(=O)Nc1ccc(C(F)(F)F)cc1Cl [Example 22, N-(2-Chloro-4-(trifluoromethyl)phenyl)-2-(2-(3,6-dihydro-2H-pyran-4-yl)-6-(4-(3,5-dioxo-2,3,4,5-tetrahydro-1,2,4-triazine-6-carbonyl)piperazin-1-yl)-5-ethyl-7-oxo-[1,2,4]triazolo[1,5-a]pyrimidin-4(7H)-yl)acetamide]

— patent US20260015358A1, “BICYCLIC DERIVATIVES, COMPOSITIONS AND USES THEREOF” (Danatlas Pharmaceuticals Co., Ltd., priority 2023, published 2026)
